Reference: patent publication US8754073B2, “Substituted piperazino-dihydrothienopyrimidines” (Boehringer Ingelheim International GmbH, priority 2007, dated 2014)

Target: PDE4B (Homo sapiens, UniProt Q07343)
Assay: Scintillation Proximity Assay (SPA) of PDE4B enzyme activity ([H3]-cAMP cleavage)
Assay type: biochemical
Conditions: test substance 1 μM; one-hour incubation of [H3]-cAMP with PDE4B enzyme at 30° C.
Experimental: The inhibitions (in %) at 1 μM of the individual Example substances are given in the following Table of Examples and were determined as follows:
The Scintillation Proximity Assay (SPA) (GE Healthcare, No. TRKQ7090) was carried out by using the different affinities of cyclic 3′-5′-adenosinemonophosphate (cAMP, low affinity) and linear 5′-adenosinemonophosphate (AMP, high affinity) for yttrium silicate scintillator beads. The cAMP specific phosphodiesterase (PDE) PDE4B cleaves the 3′-phosphoester bond of tritium-labelled [H3]-cAMP to form [H3]-5′-AMP. This [H3]-AMP accumulates on the scintillator beads because of its higher affinity for them and causes scintillation events (flashes of light) which are measured in a Wallac Microbeta Scintillation Counter.
The experiment starts with a one-hour incubation of [H3]-cAMP with the PDE4B enzyme in assay buffer at 30° C., in each case once with the Example substance to be tested (in a concentration of 1 μM) and once without the Example substance to be tested.
After this incubation, the reaction is stopped by the addition of the beads. The beads have an opportunity to settle in the next 45 minutes, then the measurement is carried out in the Scintillation Counter. If the substance is capable of inhibiting the enzymatic activity of the PDE4B, less [H3]-AMP is produced during the incubation phase and fewer scintillation events can be measured.

Chain of PDE4B (Q07343 whole entry, species assumed): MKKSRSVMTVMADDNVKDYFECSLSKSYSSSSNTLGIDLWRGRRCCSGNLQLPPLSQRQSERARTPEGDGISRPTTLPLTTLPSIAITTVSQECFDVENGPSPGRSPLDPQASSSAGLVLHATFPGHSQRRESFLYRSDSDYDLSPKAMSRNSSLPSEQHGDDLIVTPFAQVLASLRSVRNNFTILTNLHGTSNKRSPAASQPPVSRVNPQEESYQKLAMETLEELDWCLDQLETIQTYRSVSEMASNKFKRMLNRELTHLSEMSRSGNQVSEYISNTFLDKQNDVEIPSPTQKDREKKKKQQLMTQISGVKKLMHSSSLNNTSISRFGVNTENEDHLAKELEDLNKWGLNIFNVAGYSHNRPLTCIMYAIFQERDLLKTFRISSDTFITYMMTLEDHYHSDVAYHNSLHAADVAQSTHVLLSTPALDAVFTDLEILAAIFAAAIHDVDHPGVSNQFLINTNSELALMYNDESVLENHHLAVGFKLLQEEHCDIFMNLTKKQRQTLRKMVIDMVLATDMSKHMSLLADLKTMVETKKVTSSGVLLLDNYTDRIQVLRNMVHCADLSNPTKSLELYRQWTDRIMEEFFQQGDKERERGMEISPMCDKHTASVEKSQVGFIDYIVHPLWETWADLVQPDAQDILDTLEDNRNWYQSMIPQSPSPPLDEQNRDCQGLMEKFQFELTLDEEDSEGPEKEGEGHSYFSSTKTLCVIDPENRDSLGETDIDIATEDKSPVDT

Structure (SMILES)	inhibition at 1 µM [%]
Cc1noc(C2CCN(c3nc4c(c(Nc5cccc(F)c5)n3)[S+]([O-])CC4)CC2)n1 (stereo not drawn) [Example 83]	96
[O-][S+]1CCc2nc(N3CCC(c4cccc(Cl)c4)CC3)nc(Nc3cccc(F)c3)c21 (stereo not drawn) [Example 84]	95
N#CC1(c2ccccc2)CCN(c2nc3c(c(Nc4cccc(F)c4)n2)[S+]([O-])CC3)CC1 (stereo not drawn) [Example 85]	96
[O-][S+]1CCc2nc(N3CCC(c4cccc(F)c4)CC3)nc(NC3CCOCC3)c21 (stereo not drawn) [Example 86]	94
[O-][S+]1CCc2nc(N3CCC(c4ccccc4F)CC3)nc(NC3(CO)CC3)c21 (stereo not drawn) [Example 87]	92
[O-][S+]1CCc2nc(N3CCC(c4ccccc4F)CC3)nc(NC3CCOCC3)c21 (stereo not drawn) [Example 88]	92
[O-][S+]1CCc2nc(N3CCC(c4ccc(F)cc4F)CC3)nc(NC3(CO)CC3)c21 (stereo not drawn) [Example 89, (1-{2-[4-(2,4-Difluorophenyl)-Piperidin-1-Yl]-5-Oxo-6,7-Dihydro-5H-5λ^4-Thieno[3,2-d]Pyrimidin-4-Ylamino}-Cyclopropyl)-Methanol]	93
[O-][S+]1CCc2nc(N3CCC(c4ccc(F)cc4F)CC3)nc(NC3CCOCC3)c21 (stereo not drawn) [Example 90, {2-[4-(2,4-Difluorophenyl)-Piperidin-1-Yl]-5-Oxo-6,7-Dihydro-5H-5λ^4-Thieno[3,2-d]Pyrimidin-4-Yl}-(Tetrahydropyran-4-Yl)-Amine]	92
[O-][S+]1CCc2nc(N3CCC(c4cc(Cl)cc(Cl)c4)CC3)nc(NC3(CO)CC3)c21 (stereo not drawn) [Example 91, (1-{2-[4-(3,5-Dichlorophenyl)-Piperidin-1-Yl]-5-Oxo-6,7-Dihydro-5H-5λ^4-Thieno[3,2-d]Pyrimidin-4-Ylamino}-Cyclopropyl)-Methanol]	94
[O-][S+]1CCc2nc(N3CCC(c4ccc(Br)cc4)CC3)nc(NC3(CO)CC3)c21 (stereo not drawn) [Example 92, (1-{2-[4-(4-Bromophenyl)-Piperidin-1-Yl]-5-Oxo-6,7-Dihydro-5H-5λ^4-Thieno[3,2-d]Pyrimidin-4-Ylamino}-Cyclopropyl)-Methanol]	94
[O-][S+]1CCc2nc(N3CCC(c4ccc(Br)cc4)CC3)nc(NC3CCOCC3)c21 (stereo not drawn) [Example 93, {2-[4-(4-Bromophenyl)-Piperidin-1-Yl]-5-Oxo-6,7-Dihydro-5H-5λ^4-Thieno[3,2-d]Pyrimidine-4-Yl}-(Tetrahydropyran-4-Yl)-Amine]	94
[O-][S+]1CCc2nc(N3CCC(c4cccc(Br)c4)CC3)nc(NC3(CO)CC3)c21 (stereo not drawn) [Example 94]	94
[O-][S+]1CCc2nc(N3CCC(c4ccc(C(F)(F)F)cc4)CC3)nc(NC3(CO)CC3)c21 (stereo not drawn) [Example 95, (1-{5-Oxo-2-[4-(4-Trifluoromethylphenyl)-Piperidin-1-Yl]-6,7-Dihydro-5H-5λ^4-Thieno[3,2-d]Pyrimidin-4-Ylamino}-Cyclopropyl)-Methanol]	93
[O-][S+]1CCc2nc(N3CCC(c4ccc(C(F)(F)F)cc4)CC3)nc(NC3CCOCC3)c21 (stereo not drawn) [Example 96, {5-Oxo-2-[4-(4-Trifluoromethylphenyl)-Piperidin-1-Yl]-6,7-Dihydro-5H-5λ^4-Thieno[3,2-d]Pyrimidin-4-Yl}-(Tetrahydropyran-4-Yl)-Amine]	94
[O-][S+]1CCc2nc(N3CCC(c4cc(Cl)cc(Cl)c4)CC3)nc(NC3CCOCC3)c21 (stereo not drawn) [Example 97, {2-[4-(3,5-Dichlorophenyl)-Piperidin-1-Yl]-5-Oxo-6,7-Dihydro-5H-5λ^4-Thieno[3,2-d]Pyrimidin-4-Yl}-(Tetrahydropyran-4-Yl)-Amine]	93
[O-][S+]1CCc2nc(N3CCC(c4nc5ccccc5o4)CC3)nc(NC3(CO)CC3)c21 (stereo not drawn) [Example 98, {1-[2-(4-Benzoxazol-2-Yl-Piperidin-1-Yl)-5-Oxo-6,7-Dihydro-5H-5λ^4-Thieno[3,2-d]Pyrimidin-4-Ylamino]-Cyclopropyl}-Methanol]	97
[O-][S+]1CCc2nc(N3CCC(c4nc5ccccc5o4)CC3)nc(NC3CCOCC3)c21 (stereo not drawn) [Example 99, [2-(4-Benzoxazol-2-Yl-Piperidin-1-Yl)-5-Oxo-6,7-Dihydro-5H-5λ^4-Thieno[3,2-d]Pyrimidin-4-Yl]-(Tetrahydropyran-4-Yl)-Amine]	97
CN1C[C@@H](Nc2nc(N3CCC(c4nc5ccccc5o4)CC3)nc3c2[S+]([O-])CC3)CCC1=O (stereo partly drawn) [Example 100, (S)-5-[2-(4-Benzoxazol-2-Yl-Piperidin-1-Yl)-5-Oxo-6,7-Dihydro-5H-5λ^4-Thieno[3,2-d]Pyrimidin-4-Ylamino]-1-Methylpiperidin-2-One]	97
COc1ccc(C2CCN(c3nc4c(c(NC5(CO)CC5)n3)[S+]([O-])CC4)CC2)cc1 (stereo not drawn) [Example 101]	94
COC(=O)c1ccc(C2CCN(c3nc4c(c(NC5(CO)CC5)n3)[S+]([O-])CC4)CC2)cc1 (stereo not drawn) [Example 103]	95
COC(=O)c1cccc(C2CCN(c3nc4c(c(NC5(CO)CC5)n3)[S+]([O-])CC4)CC2)c1 (stereo not drawn) [Example 104]	95
[O-][S+]1CCc2nc(N3CCC(c4noc5cc(F)ccc45)CC3)nc(NC3(CO)CC3)c21 (stereo not drawn) [Example 105]	95
[O-][S+]1CCc2nc(N3CCC(c4noc5ccc(F)cc45)CC3)nc(NC3(CO)CC3)c21 (stereo not drawn) [Example 106]	95
N#Cc1cccc(C2CCN(c3nc4c(c(NC5(CO)CC5)n3)[S+]([O-])CC4)CC2)c1 (stereo not drawn) [Example 107]	94
[O-][S+]1CCc2nc(N3CCC(c4nnc5ccccn45)CC3)nc(NC3(CO)CC3)c21 (stereo not drawn) [Example 108]	88
[O-][S+]1CCc2nc(N3CCC4(CC3)OCc3ccccc34)nc(NC3(CO)CC3)c21 (stereo not drawn) [Example 109]	75

Structure (SMILES)	inhibition at 1 µM [%]
[O-][S+]1CCc2nc(N3CCC(c4cc5ccccc5o4)CC3)nc(NC3(CO)CC3)c21 (stereo not drawn) [Example 110]	97
[O-][S+]1CCc2nc(N3CCC(c4ccc5ccccc5c4)CC3)nc(NC3(CO)CC3)c21 (stereo not drawn) [Example 111]	96
[O-][S+]1CCc2nc(N3CCC(c4nnc(-c5ccc(F)cc5)o4)CC3)nc(NC3(CO)CC3)c21 (stereo not drawn) [Example 112]	95
CC(C)c1noc(C2CCN(c3nc4c(c(NC5(CO)CC5)n3)[S+]([O-])CC4)CC2)n1 (stereo not drawn) [Example 113]	92
[O-][S+]1CCc2nc(N3CCC(c4cc(-c5ccco5)n[nH]4)CC3)nc(NC3(CO)CC3)c21 (stereo not drawn) [Example 114]	96
[O-][S+]1CCc2nc(N3CCC(c4nc(-c5cccnc5)no4)CC3)nc(NC3(CO)CC3)c21 (stereo not drawn) [Example 115]	94
[O-][S+]1CCc2nc(N3CCC(c4nc(-c5ccncc5)no4)CC3)nc(NC3(CO)CC3)c21 (stereo not drawn) [Example 116]	94
COc1ccc(C2CCN(c3nc4c(c(NC5CCOCC5)n3)[S+]([O-])CC4)CC2)cc1 (stereo not drawn) [Example 117]	94
[O-][S+]1CCc2nc(N3CCC(c4nc5cc(Cl)ccc5s4)CC3)nc(NC3CCOCC3)c21 (stereo not drawn) [Example 118]	96
COC(=O)c1ccc(C2CCN(c3nc4c(c(NC5CCOCC5)n3)[S+]([O-])CC4)CC2)cc1 (stereo not drawn) [Example 119]	95
COC(=O)c1cccc(C2CCN(c3nc4c(c(NC5CCOCC5)n3)[S+]([O-])CC4)CC2)c1 (stereo not drawn) [Example 120]	95
[O-][S+]1CCc2nc(N3CCC(c4noc5cc(F)ccc45)CC3)nc(NC3CCOCC3)c21 (stereo not drawn) [Example 121]	96
[O-][S+]1CCc2nc(N3CCC(c4noc5ccc(F)cc45)CC3)nc(NC3CCOCC3)c21 (stereo not drawn) [Example 122]	96
N#Cc1cccc(C2CCN(c3nc4c(c(NC5CCOCC5)n3)[S+]([O-])CC4)CC2)c1 (stereo not drawn) [Example 123]	94
[O-][S+]1CCc2nc(N3CCC(c4nnc5ccccn45)CC3)nc(NC3CCOCC3)c21 (stereo not drawn) [Example 124]	89
[O-][S+]1CCc2nc(N3CCC4(CC3)OCc3ccccc34)nc(NC3CCOCC3)c21 (stereo not drawn) [Example 125]	74
[O-][S+]1CCc2nc(N3CCC(c4cc5ccccc5o4)CC3)nc(NC3CCOCC3)c21 (stereo not drawn) [Example 126]	96
[O-][S+]1CCc2nc(N3CCC(c4ccc5ccccc5c4)CC3)nc(NC3CCOCC3)c21 (stereo not drawn) [Example 127]	96
CC(C)c1noc(C2CCN(c3nc4c(c(NC5CCOCC5)n3)[S+]([O-])CC4)CC2)n1 (stereo not drawn) [Example 129]	93
[O-][S+]1CCc2nc(N3CCC(c4cc(-c5ccco5)n[nH]4)CC3)nc(NC3CCOCC3)c21 (stereo not drawn) [Example 130]	96
[O-][S+]1CCc2nc(N3CCC(c4nc(-c5cccnc5)no4)CC3)nc(NC3CCOCC3)c21 (stereo not drawn) [Example 131]	94
[O-][S+]1CCc2nc(N3CCC(c4nc(-c5ccncc5)no4)CC3)nc(NC3CCOCC3)c21 (stereo not drawn) [Example 132]	95
COc1ccc(C2CCN(c3nc4c(c(Nc5cccc(F)c5)n3)[S+]([O-])CC4)CC2)cc1 (stereo not drawn) [Example 133]	95
[O-][S+]1CCc2nc(N3CCC(c4nc5cc(Cl)ccc5s4)CC3)nc(Nc3cccc(F)c3)c21 (stereo not drawn) [Example 134]	95
COC(=O)c1cccc(C2CCN(c3nc4c(c(Nc5cccc(F)c5)n3)[S+]([O-])CC4)CC2)c1 (stereo not drawn) [Example 135]	96
